# Reference: patent US20060051291A1, “Synthesis of radiolabeled sugar metal complexes” (priority 2004, published 2006)
# Assay type: physicochemical
# From the text: Minor species are also detected by UV/visible spectroscopy in the HPLC of the complex and become more significant over time. The ^13C{^1H} NMR spectrum (d6-DMSO) of the complex was fully assigned for the α-anomer, and partially assigned for the β-anomer (as reflected above in TABLE 1).
substance,measurement,value
Tricarbonyl (N-(2′-Hydroxybenzyl)-2-amino-2-deoxy-D-glucose) rhenium(I) [[(L^2)Re(CO)3]],stability in solution,become visibly brown
